Laboratory results reported in the Kinase Knowledgebase extract (Sharma et al. 2016).

Target: PIK3CG (human) (UniProt P48736)
Assay: Assessment of PIK3CG Kinase Activity

Sequence of PIK3CG (human) (P48736 whole entry, looked up): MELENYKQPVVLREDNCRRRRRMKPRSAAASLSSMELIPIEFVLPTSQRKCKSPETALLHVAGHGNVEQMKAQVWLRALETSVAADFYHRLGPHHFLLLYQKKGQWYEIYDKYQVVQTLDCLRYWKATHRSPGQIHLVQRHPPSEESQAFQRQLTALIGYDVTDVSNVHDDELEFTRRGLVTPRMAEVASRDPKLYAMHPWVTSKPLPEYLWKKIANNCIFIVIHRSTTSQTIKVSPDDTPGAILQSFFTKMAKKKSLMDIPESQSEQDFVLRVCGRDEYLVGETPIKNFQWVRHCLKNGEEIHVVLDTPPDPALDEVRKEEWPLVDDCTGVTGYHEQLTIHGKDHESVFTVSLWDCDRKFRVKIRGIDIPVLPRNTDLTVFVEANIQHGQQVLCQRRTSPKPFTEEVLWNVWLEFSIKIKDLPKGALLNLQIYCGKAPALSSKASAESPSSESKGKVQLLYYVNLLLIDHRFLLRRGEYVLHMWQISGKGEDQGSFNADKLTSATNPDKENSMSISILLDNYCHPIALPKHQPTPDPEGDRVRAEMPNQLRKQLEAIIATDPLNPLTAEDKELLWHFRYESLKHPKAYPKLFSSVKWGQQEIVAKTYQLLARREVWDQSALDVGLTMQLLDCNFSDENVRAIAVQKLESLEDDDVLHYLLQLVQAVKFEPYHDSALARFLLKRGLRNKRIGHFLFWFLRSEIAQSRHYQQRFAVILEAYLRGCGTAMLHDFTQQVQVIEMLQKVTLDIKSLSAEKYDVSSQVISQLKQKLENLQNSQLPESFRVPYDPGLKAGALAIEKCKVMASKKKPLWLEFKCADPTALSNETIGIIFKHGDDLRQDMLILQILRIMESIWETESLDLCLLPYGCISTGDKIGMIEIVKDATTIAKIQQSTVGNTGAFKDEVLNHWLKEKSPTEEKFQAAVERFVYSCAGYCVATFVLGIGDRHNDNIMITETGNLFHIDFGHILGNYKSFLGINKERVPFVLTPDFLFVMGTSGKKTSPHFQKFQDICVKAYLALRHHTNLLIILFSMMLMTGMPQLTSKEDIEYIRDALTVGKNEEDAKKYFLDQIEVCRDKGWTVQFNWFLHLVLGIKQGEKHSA

Row | Compound | IC50 [nM]
1 | CC(C)N1CC(=O)N(C)c2cnc(Nc3cc(NS(C)(=O)=O)cc(C(=O)NCCN4CCNC4=O)c3)nc21 | < 800
2 | CC(C)N1CC(=O)N(C)c2cnc(Nc3cc(NC(=O)NCCN4CCNC4=O)cc(S(C)(=O)=O)c3)nc21 | < 800
3 | CC(C)N1CC(=O)N(C)c2cnc(Nc3cc(NS(=O)(=O)c4ccc(F)cc4)cc(S(N)(=O)=O)c3)nc21 | < 800
4 | CC(C)N1CC(=O)N(C)c2cnc(Nc3cc(NC(=O)NC[C@H]4CCCN4c4ccncc4)cc(S(C)(=O)=O)c3)nc21 | < 800
5 | CC(C)N1CC(=O)N(C)c2cnc(Nc3cc(N(C)C(=O)N[C@@H](C)c4ccccc4)cc(S(C)(=O)=O)c3)nc21 | < 800
6 | CC(C)N1CC(=O)N(C)c2cnc(Nc3cc(NC(=O)NC[C@H]4CCCN4)cc(S(C)(=O)=O)c3)nc21 | < 800
7 | CC(C)N1CC(=O)N(C)c2cnc(Nc3cc(NS(=O)(=O)c4cccnc4)cc(S(N)(=O)=O)c3)nc21 | < 800
8 | CC(C)N1CC(=O)N(C)c2cnc(Nc3cc(NC(=O)[C@H](N)c4ccccc4)cc(S(C)(=O)=O)c3)nc21 | < 800
9 | CC(C)N1CC(=O)N(C)c2cnc(Nc3cc(NC(=O)Cc4cccc(F)c4)cc(S(C)(=O)=O)c3)nc21 | < 800
10 | CCC(C)Nc1cc(Nc2ncc3c(n2)N(C(C)C)CC(=O)N3C)cc(S(C)(=O)=O)c1 (configuration not stated) | < 800
11 | CC(C)N1CC(=O)N(C)c2cnc(Nc3cc(NS(C)(=O)=O)cc(C(F)(F)F)c3)nc21 | < 800
12 | CC(C)N1CC(=O)N(C)c2cnc(Nc3cc(NS(C)(=O)=O)cc(C(=O)NCCN(C)C)c3)nc21 | < 800
13 | CNCCS(=O)(=O)c1cccc(Nc2ncc3c(n2)N(C(C)C)CC(=O)N3C)c1 | < 800
14 | CCc1cnc(CCNC(=O)Nc2cc(Nc3ncc4c(n3)N(C(C)C)CC(=O)N4C)cc(S(C)(=O)=O)c2)o1 | < 800
15 | CC(C)N1CC(=O)N(C)c2cnc(Nc3cc(NC(=O)Cc4cc5ccccc5n4C)cc(S(C)(=O)=O)c3)nc21 | < 800
16 | Cc1c[nH]c(CCNC(=O)c2cc(Nc3ncc4c(n3)N(C(C)C)CC(=O)N4C)cc(NS(C)(=O)=O)c2)n1 | < 800
17 | CC(C)N1CC(=O)N(C)c2cnc(Nc3cc(NC(=O)Cc4nnn[nH]4)cc(S(C)(=O)=O)c3)nc21 | < 800
18 | CC(C)N1CC(=O)N(C)c2cnc(Nc3cc(NC(=O)Cc4ccccc4)cc(S(C)(=O)=O)c3)nc21 | < 800
19 | CC(C)N1CC(=O)N(C)c2cnc(Nc3cc(NC(=O)NC[C@H]4CCNC4)cc(S(C)(=O)=O)c3)nc21 | < 800

Row | Compound | IC50 [nM]
20 | CC(C)N1CC(=O)N(C)c2cnc(Nc3cc(NC(=O)NCc4cc(C5CC5)[nH]n4)cc(S(C)(=O)=O)c3)nc21 | < 800
21 | CC(C)N1CC(=O)N(C)c2cnc(Nc3cc(NC(=O)c4cccc(C#N)c4)cc(S(C)(=O)=O)c3)nc21 | < 800
22 | CC(C)N1CC(=O)N(C)c2cnc(Nc3cc(NC(=O)O[C@H]4CCN(C5CCCC5)C4)cc(S(C)(=O)=O)c3)nc21 | < 800
23 | COc1ccc2[nH]c(CC(=O)Nc3cc(Nc4ncc5c(n4)N(C(C)C)CC(=O)N5C)cc(S(C)(=O)=O)c3)cc2c1 | < 800
24 | CC(C)N1CC(=O)N(C)c2cnc(Nc3cc(NC(=O)N[C@H]4CC[C@@H](N(C)C)CC4)cc(S(C)(=O)=O)c3)nc21 | < 800
25 | CC(C)N1CC(=O)N(C)c2cnc(Nc3cc(Cl)cc(S(C)(=O)=O)c3)nc21 | < 800
26 | CC(C)N1CC(=O)N(C)c2cnc(Nc3cc(NS(C)(=O)=O)cc(C(=O)NCCC4CCCN4C)c3)nc21 (configuration not stated) | < 800
27 | Cc1cc(CC(=O)N(C)c2cc(Nc3ncc4c(n3)N(C(C)C)CC(=O)N4C)cc(S(C)(=O)=O)c2)on1 | < 800
28 | CC(C)N1CC(=O)N(C)c2cnc(Nc3cc(NC(=O)NC[C@@H]4CCCN4)cc(S(C)(=O)=O)c3)nc21 | < 800
29 | CC(C)N1CC(=O)N(C)c2cnc(Nc3cc(NC(=O)CCC4CCCC4)cc(S(C)(=O)=O)c3)nc21 | < 800
30 | CC(C)N1CC(=O)N(C)c2cnc(Nc3cc(N(C)C(=O)Nc4ccccc4)cc(S(C)(=O)=O)c3)nc21 | < 800
31 | CCS(=O)(=O)c1cccc(Nc2ncc3c(n2)N(C2CCCCC2)CC(=O)N3C)c1 | < 800
32 | CC(C)N1CC(=O)N(C)c2cnc(Nc3cccc(S(=O)(=O)C(C)C)c3)nc21 | < 800
33 | CC(C)N1CC(=O)N(C)c2cnc(Nc3cc(NC(=O)N[C@@H]4CCNC4)cc(S(C)(=O)=O)c3)nc21 | < 800
34 | CC(C)N1CC(=O)N(C)c2cnc(Nc3cc(NC(=O)NCCCN(C)C)cc(S(C)(=O)=O)c3)nc21 | < 800
35 | CC(C)N1CC(=O)N(C)c2cnc(Nc3cc(NC(=O)NC[C@@H]4CCNC4)cc(S(C)(=O)=O)c3)nc21 | < 800
36 | CC(C)N1CC(=O)N(C)c2cnc(Nc3cc(C(=O)NCCC4CCCN4C)cc(C(F)(F)F)c3)nc21 (configuration not stated) | < 800
37 | CC(C)N1CC(=O)N(C)c2cnc(Nc3cc(NC(=O)C4CN(C5CCCC5)CCO4)cc(S(C)(=O)=O)c3)nc21 (configuration not stated) | < 800
38 | CC(C)N1CC(=O)N(C)c2cnc(Nc3cc(NC(=O)NCc4ccncc4)cc(S(C)(=O)=O)c3)nc21 | < 800

Row | Compound | IC50 [nM]
39 | CC(C)CCC(=O)Nc1cc(Nc2ncc3c(n2)N(C(C)C)CC(=O)N3C)cc(S(C)(=O)=O)c1 | < 800
40 | CC(C)N1CC(=O)N(C)c2cnc(Nc3cc(NS(C)(=O)=O)cc(C(=O)NCc4ccncc4)c3)nc21 | < 800
41 | CC(C)N1CC(=O)N(C)c2cnc(Nc3cc(NC(=O)Cc4ccc(Cl)nc4)cc(S(C)(=O)=O)c3)nc21 | < 800
42 | CC(C)N1CC(=O)N(C)c2cnc(Nc3cc(NC(=O)c4ccsc4)cc(S(C)(=O)=O)c3)nc21 | < 800
43 | CC(C)N1CC(=O)N(C)c2cnc(Nc3cc(NC(=O)[C@H](C)C4CCCCC4)cc(S(C)(=O)=O)c3)nc21 | < 800
44 | CC(C)N1CC(=O)N(C)c2cnc(Nc3cc(NC(=O)N[C@@H]4CCN(C5CCCC5)C4)cc(NS(C)(=O)=O)c3)nc21 | < 800
45 | CC(C)N1CC(=O)N(C)c2cnc(Nc3cc(NC(=O)NCc4ccccc4)cc(S(C)(=O)=O)c3)nc21 | < 800
46 | CC(C)N1CC(=O)N(C)c2cnc(Nc3cc(NS(=O)(=O)c4ccc(N5CCOCC5)nc4)cc(S(N)(=O)=O)c3)nc21 | < 800
47 | CC(C)N1CC(=O)N(C)c2cnc(Nc3cc(NC(=O)[C@@H](N)c4ccccc4)cc(S(C)(=O)=O)c3)nc21 | < 800
48 | CC(C)N1CC(=O)N(C)c2cnc(Nc3cc(NC(N)=O)cc(S(C)(=O)=O)c3)nc21 | < 800
49 | CC(C)N1CC(=O)N(C)c2cnc(Nc3cc(NC(=O)C[C@H]4CCNC4)cc(S(C)(=O)=O)c3)nc21 | < 800
50 | CC(C)N1CC(=O)N(C)c2cnc(Nc3cc(NC(=O)N[C@H]4CC[C@@H](N)CC4)cc(S(C)(=O)=O)c3)nc21 | < 800
51 | CC(C)N1CC(=O)N(C)c2cnc(Nc3cc(NS(=O)(=O)c4ccc(F)cc4)cc(S(C)(=O)=O)c3)nc21 | < 800
52 | CC(C)N1CC(=O)N(C)c2cnc(Nc3cc(NC(=O)NC[C@H]4CCCN4C4CCCC4)cc(S(C)(=O)=O)c3)nc21 | < 800
53 | CC(C)N1CC(=O)N(C)c2cnc(Nc3cc(C(N)=O)cc(S(C)(=O)=O)c3)nc21 | < 800
54 | CC(C)N1CC(=O)N(C)c2cnc(Nc3cc(Nc4ccc(CN5CCN(C)CC5)cc4)cc(S(C)(=O)=O)c3)nc21 | < 800
55 | CC(C)N1CC(=O)N(C)c2cnc(Nc3cc(NC(=O)Cc4noc5ccccc45)cc(S(C)(=O)=O)c3)nc21 | < 800
56 | Cc1cccc(CC(=O)Nc2cc(Nc3ncc4c(n3)N(C(C)C)CC(=O)N4C)cc(S(C)(=O)=O)c2)c1 | < 800
57 | CC(C)N1CC(=O)N(C)c2cnc(Nc3cc(NC(=O)Cc4cccs4)cc(S(C)(=O)=O)c3)nc21 | < 800
